Reference: patent US11149037B2, “Pyrazole MAGL inhibitors” (H. Lundbeck A/S, priority 2017, dated 2021)

How the values were obtained:
[1] = biological target: T1, MAGL (Mus musculus (Mouse), UniProt O35678); assay: In vitro competitive activity-based protein profiling, mouse proteomes (brain membrane fraction or cell lysates); type: biochemical; details: mouse proteome, read-out: MAGL % inh. 1 μM (mouse)
Procedure, shortened: (§1)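 Activity of MAGL and FAAH was quantified from fluorescent gel band intensities. Beforehand, inhibitors at several concentrations competed against subsequent probe labelling (FP-Rh, JW912 or HT-01) in species-matched proteomes, each step 30 min at 37° C.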

[2] = biological target: T2, FAAH (Mus musculus (Mouse), UniProt O08914); assay: as above; type: biochemical; details: mouse proteome, read-out: FAAH % inh. 1 μM (mouse)
T2 sequence (O08914 whole entry): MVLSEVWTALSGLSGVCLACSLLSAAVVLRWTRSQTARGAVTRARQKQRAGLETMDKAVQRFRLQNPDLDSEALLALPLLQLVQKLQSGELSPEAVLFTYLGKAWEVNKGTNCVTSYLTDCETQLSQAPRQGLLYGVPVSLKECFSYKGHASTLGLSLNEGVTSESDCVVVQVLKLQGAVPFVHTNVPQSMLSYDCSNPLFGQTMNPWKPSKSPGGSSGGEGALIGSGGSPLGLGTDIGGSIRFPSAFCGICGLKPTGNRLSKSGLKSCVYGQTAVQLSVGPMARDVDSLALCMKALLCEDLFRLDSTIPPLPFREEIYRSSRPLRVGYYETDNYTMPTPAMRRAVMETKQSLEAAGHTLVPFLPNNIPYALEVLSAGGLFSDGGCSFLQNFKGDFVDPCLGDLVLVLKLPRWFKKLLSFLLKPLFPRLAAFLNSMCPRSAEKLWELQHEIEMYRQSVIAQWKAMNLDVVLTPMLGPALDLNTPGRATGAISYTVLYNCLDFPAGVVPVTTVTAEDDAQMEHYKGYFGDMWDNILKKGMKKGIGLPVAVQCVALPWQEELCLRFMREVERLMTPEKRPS
Procedure, shortened: as §1

[3] = biological target: MAGL (Homo sapiens (Human), UniProt Q99685); assay: In vitro competitive activity-based protein profiling, human proteomes (prefrontal cortex or PC3 cell membrane fractions); type: biochemical; details: human proteome; for inhibition at 1 µM: read-out: MAGL % inh. 1 μM (human)
Chain of MAGL (Homo sapiens (Human), UniProt Q99685) (Q99685 whole entry): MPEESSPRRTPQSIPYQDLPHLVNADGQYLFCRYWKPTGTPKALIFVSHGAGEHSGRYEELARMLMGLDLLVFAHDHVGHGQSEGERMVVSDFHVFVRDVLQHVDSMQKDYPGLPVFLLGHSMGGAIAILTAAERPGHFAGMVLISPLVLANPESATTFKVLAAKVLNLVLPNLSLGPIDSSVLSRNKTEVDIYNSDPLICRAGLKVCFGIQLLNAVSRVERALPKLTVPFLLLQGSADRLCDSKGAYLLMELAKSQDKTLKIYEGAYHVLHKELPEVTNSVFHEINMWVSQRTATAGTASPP
Procedure, shortened: as §1

[4] = biological target: FAAH (Homo sapiens (Human), UniProt O00519); assay: as above; type: biochemical; details: human proteome; for inhibition at 1 µM: read-out: FAAH % inh. 1 μM (human)
Chain of FAAH (Homo sapiens (Human), UniProt O00519) (O00519 whole entry): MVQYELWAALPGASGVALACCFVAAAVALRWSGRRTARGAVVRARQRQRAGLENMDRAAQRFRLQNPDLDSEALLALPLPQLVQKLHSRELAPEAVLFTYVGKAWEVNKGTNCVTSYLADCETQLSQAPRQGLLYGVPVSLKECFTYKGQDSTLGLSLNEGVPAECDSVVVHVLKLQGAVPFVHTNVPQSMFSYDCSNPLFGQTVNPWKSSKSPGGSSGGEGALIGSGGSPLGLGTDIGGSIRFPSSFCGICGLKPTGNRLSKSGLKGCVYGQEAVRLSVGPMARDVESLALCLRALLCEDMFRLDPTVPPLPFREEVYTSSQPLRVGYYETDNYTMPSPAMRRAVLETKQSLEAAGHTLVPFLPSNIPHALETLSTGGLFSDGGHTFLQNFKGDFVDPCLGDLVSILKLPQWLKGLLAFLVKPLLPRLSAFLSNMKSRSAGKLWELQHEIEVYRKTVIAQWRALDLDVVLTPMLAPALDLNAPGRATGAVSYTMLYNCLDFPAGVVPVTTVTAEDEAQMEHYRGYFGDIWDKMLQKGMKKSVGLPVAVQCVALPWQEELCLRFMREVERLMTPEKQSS
Procedure, shortened: as §1

[5] = biological target: T1, MAGL; assay: Mouse brain proteomes from inhibitor treated mice (oral gavage, sacrificed 4 h after administration); type: in vivo; details: 5 mg/kg oral gavage
Description: (§2) Preparation of Mouse Brain Proteomes from Inhibitor Treated Mice.
(§3) Inhibitors were administered to wild-type C57B1/6J by oral gavage in a vehicle of polyethylene glycol. Each animal was sacrificed 4 h following administration and brain proteomes were prepared and analyzed according to previously established methods (See Niphakis, M. J., et al. (2011) ACS Chem. Neurosci. and Long, J. Z., et al. Nat. Chem. Biol. 5:37-44).

[6] = biological target: T2, FAAH; assay: as above; type: in vivo; details: 5 mg/kg oral gavage
Description: as §2, §3

T1 sequence (O35678 whole entry): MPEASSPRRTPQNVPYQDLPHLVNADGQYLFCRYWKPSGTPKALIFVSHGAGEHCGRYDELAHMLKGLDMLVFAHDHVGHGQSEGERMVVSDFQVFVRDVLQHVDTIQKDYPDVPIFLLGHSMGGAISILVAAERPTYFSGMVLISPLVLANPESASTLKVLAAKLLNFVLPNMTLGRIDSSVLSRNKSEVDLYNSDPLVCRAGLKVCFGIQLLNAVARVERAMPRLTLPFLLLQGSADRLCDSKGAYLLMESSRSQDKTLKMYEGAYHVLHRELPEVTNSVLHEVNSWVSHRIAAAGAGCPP

Row | inhibition at 1 µM [1] | inhibition at 1 µM [2] | inhibition at 1 µM [3] | inhibition at 1 µM [4] | IC50 [3] | IC50 [4] | Compound | MAGL % inh. 5 mg/kg (mouse) [5] | FAAH % inh. 5 mg/kg (mouse) [6]
1 | > 75% | > 75% | > 75% | 25 to 50% |  |  | CC(=O)Nc1ccn(C(=O)N2CC3CN(Cc4cccc(C(F)(F)F)c4)CC3C2)n1 (centres unmarked) [Example 112, N-(1-(5-(3-(Trifluoromethyl)benzyl)octahydropyrrolo[3,4-c]pyrrole-2-carbonyl)-1H-pyrazol-3-yl)acetamide] | A (% inhibition is greater than or equal to 75%) | A (% inhibition is greater than or equal to 75%)
2 | > 75% | 0 to 25% | > 75% | 0 to 25% |  |  | C[C@H]1CN(Cc2ccc(Cl)c(N3CCC(F)CC3)c2)CCN1C(=O)n1ccc(NS(C)(=O)=O)n1 [Example 136, (S)-N-(1-(4-(4-Chloro-3-(4-fluoropiperidin-1-yl)benzyl)-2-methylpiperazine-1-carbonyl)-1H-pyrazol-3-yl)methanesulfonamide] | A (% inhibition is greater than or equal to 75%) | D (% inhibition is greater than or equal to 0% and less than 25%)
3 | 50 to 75% | 0 to 25% | > 75% | 0 to 25% | < 0.1 µM | 1 to 10 µM | CC(=O)Nc1ccn(C(=O)N2CCC3(CCCN3Cc3cc4cc(C(N)=O)ccc4[nH]3)CC2)n1 [Example 14, 2-((8-(3-acetamido-1H-pyrazole-1-carbonyl)-1,8-diazaspiro[4.5]decan-1-yl)methyl)-1H-indole-5-carboxamide] | D (% inhibition is greater than or equal to 0% and less than 25%) | D (% inhibition is greater than or equal to 0% and less than 25%)
